Reference: US20240409536A1, “COMPOUNDS AND METHODS FOR MODULATING SPLICING” (REMIX THERAPEUTICS INC., priority 2021, published 2024)

Legend:
[1] = tested on: Target C; assay: HiBiT protein abundance assay, Target C (K562 HiBiT knock-in cells); assay type: cell-based, human; settings: 24 hours
In short: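 Protein abundance read by HiBiT lytic luminescence after 24 h compound exposure (37 °C) of knock-in K562 cells, 10000 cells/well in IMDM+1% FBS. Dosing: 10 points, 3-fold, top 10 μM final, ≤0.25% DMSO. Four-parameter logistic fit gave concentration reducing abundance to 50% of untreated control.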

[2] = tested on: HTT mRNA; assay: Splicing RT-qPCR assay, HTT canonical (CJ) and alternative (AJ) junction mRNA; assay type: cell-based; settings: Homo sapiens, A673 or K562 cells, 24 hours; for IC50: decrease in canonical junction mRNA; for AC50: increase in alternative junction mRNA
In short: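 RT-qPCR read-out: CJ and AJ junction isoforms quantified from cell lysates, normalized to housekeeping GAPDH/GUSB (K562) or PPIA (A673). Cells had 24 h compound exposure, 11-point 3-fold series from 10 uM final, ≤0.25% DMSO.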

IC50 [1] [µM] | IC50 [2] [µM] | SMILES | AC50 [2] [µM]
> 10 | > 10 | Cc1c(O)c(NC(=O)c2ccc(N3C[C@@H](C)N[C@@H](C)C3)c3nccnc23)cc2cn(C)nc12 [Compound 310] | > 10
1 to 10 | 1 to 10 | Cc1cn2nc(NC(=O)c3ccc(C4CCNCC4)c4ccnnc34)cc(C)c2n1 [Compound 113] | 1 to 10
> 10 | > 10 | Cc1cn2cc(NC(=O)c3ccc(N4C[C@@H](C)N[C@@H](C)C4)c4nccnc34)nc(Cl)c2n1 [Compound 279] | > 10
0.1 to 1 | 0.1 to 1 | Cc1nc2c(F)cc(NC(=O)c3ccc(N4CCNCC4)c4ccnnc34)cc2s1 [Compound 118] | 0.1 to 1
